From patent US20260041679A1, “METHOD OF TREATING HYPERTENSION WITH THE ALDOSTERONE SYNTHASE INHIBITOR BAXDROSTAT” (CINCOR PHARMA, INC., priority 2022, published 2026)

Assays:
[1] = Multiple ascending dose study, safety (Example 2); type: in vivo, human; settings: 0.5 to 5.0 mg once daily, 10 days
Protocol: This randomized, double-blind, placebo-controlled phase 1 study evaluated the safety, pharmacokinetics, and pharmacodynamics of multiple ascending doses of baxdrostat in healthy volunteers. Fifty-six subjects were randomized to receive oral baxdrostat (0.5, 1.5, 2.5, or 5.0 mg) or placebo once daily for ten days and were placed on either a low salt or normal salt diet for the duration of the study. In particular, subjects were randomized into 5 cohorts to receive baxdrostat or placebo once daily for 10 days. Cohorts 1 and 2 were placed on a low salt diet to stimulate aldosterone production and were administered 2.5 or 5.0 mg oral baxdrostat, respectively. Cohorts 1 and 2 also underwent an adrenocorticotropic hormone (ACTH) challenge to increase aldosterone and cortisol levels to evaluate the specificity of baxdrostat for targeting aldosterone synthase. Cohorts 3, 4, and 5 were placed on a normal salt diet and were administered 1.5, 2.5, or 0.5 mg oral baxdrostat, respectively. Blood samples were collected prior to and after dosing on days 1 and 10 for measurement of plasma baxdrostat concentrations to characterize single-dose and steady-state pharmacokinetics. Pharmacodynamic measurements included plasma aldosterone, cortisol, and electrolytes. Safety assessments included physical examination, electrocardiograms, orthostatic vital signs, and clinical laboratory evaluations.

[2] = Study 124 Part 1: safety, adverse events and serum potassium; type: in vivo, human
Text: The safety objectives for both Parts 1 and 2 are to evaluate vital signs, standing blood pressure, heart rate, physical examinations, ECG, body weight, and clinical laboratory assessments, including standard safety chemistry panel, hematology, coagulation, and urinalysis.

aldosterone synthase [3] = target: T1, aldosterone synthase (Homo sapiens, UniProt P19099); assay: Study 121: pharmacodynamics, serum and 24-hour urine aldosterone, plasma renin activity, serum cortisol; type: in vivo
T1 construct: Pharmacodynamic measurements included plasma aldosterone, cortisol, and electrolytes; endogenous in cells; host or cells: human subjects in vivo (healthy volunteers; resistant hypertension patients)
T1 sequence (P19099 25-503): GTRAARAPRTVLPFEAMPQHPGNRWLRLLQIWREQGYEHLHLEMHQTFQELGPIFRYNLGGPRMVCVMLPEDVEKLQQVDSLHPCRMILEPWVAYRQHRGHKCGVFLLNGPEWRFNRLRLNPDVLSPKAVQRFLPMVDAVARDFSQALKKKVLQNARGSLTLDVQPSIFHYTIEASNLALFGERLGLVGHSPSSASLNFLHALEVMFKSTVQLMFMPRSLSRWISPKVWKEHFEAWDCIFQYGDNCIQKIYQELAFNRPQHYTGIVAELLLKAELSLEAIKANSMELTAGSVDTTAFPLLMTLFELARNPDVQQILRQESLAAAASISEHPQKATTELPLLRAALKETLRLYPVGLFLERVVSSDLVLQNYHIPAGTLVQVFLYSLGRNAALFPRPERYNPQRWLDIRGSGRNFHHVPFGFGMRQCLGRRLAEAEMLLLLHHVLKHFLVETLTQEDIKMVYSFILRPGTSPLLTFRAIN
Text: Blood and urine samples were collected for determination of the pharmacodynamic parameters related to baxdrostat mechanism of aldosterone suppression. Serum concentrations of aldosterone, aldosterone excreted in 24-hour urine collections, plasma renin activity (PRA) and serum cortisol are summarized by dose and by study day as shown in FIGS. 3A-3D. […] These hormonal data provide strong biochemical evidence to support the mechanism by which baxdrostat's inhibition of aldosterone synthesis produces a significant impact on blood pressure levels without lowering serum cortisol levels.

aldosterone synthase [4] = target: T1, aldosterone synthase; assay: Single ascending dose study, pharmacodynamics: aldosterone, cortisol with ACTH challenge (Example 1); type: in vivo
Protocol: Eighty-eight healthy male volunteers completed the first-in-human study of baxdrostat. In part 1 of the trial, subjects received a single oral dose of baxdrostat ranging from 1 to 360 mg in order to evaluate safety, tolerability, PK, and pharmacodynamics (PD). Part 2 evaluated the PK of a single 3 mg intravenous dose of baxdrostat.

[5] = Part 1, 0.5 mg baxdrostat, n = 63
[6] = Part 1, 1 mg baxdrostat, n = 62
[7] = Part 1, 2 mg baxdrostat, n = 60

## CCC(=O)N[C@@H]1CCCc2c(-c3ccc4c(c3)CCC(=O)N4C)cncc21 [baxdrostat, (R)—N-(4-(1-methyl-2-oxo-1,2,3,4-tetrahydroquinolin-6-yl)-5,6,7,8-tetrahydroisoquinolin-8-yl) propionamide]
[1]
  deaths or serious adverse events: no deaths or serious adverse events
  severity of treatment-emergent adverse events: mild in severity
[2]; 0.5 mg
  Mean Change in Serum Potassium From Baseline at Week 8 (SD): −0.07 (0.37) mmol/L
[2]; 1 mg
  Mean Change in Serum Potassium From Baseline at Week 8 (SD): 0.26 (0.47) mmol/L
[2]; 2 mg
  Mean Change in Serum Potassium From Baseline at Week 8 (SD): 0.12 (0.48) mmol/L
[2]; 2 mg dose
  increase in mean potassium: 0.1 mEq/L
[2]; Part 1
  potassium elevations>6.2 mEq/L: No potassium elevations>6.2 mEq/L were recorded
  share of patients receiving baxdrostat with potassium>6 mEq/L: ~1.6%
  treatment emergent SAEs: two treatment emergent SAEs (2 patients) and neither were deemed related to baxdrostat
[2]; Part 1, all baxdrostat doses
  patients with isolated instances of moderately elevated potassium>6 mEq/L: Three
[2]; [5]
  AESI, %: 1.6%
  AESI, e - Number of events: 1
  AESI, n - Number of subjects: 1
  SAEs, %: 0.0%
  SAEs, e - Number of events: 0
  SAEs, n - Number of subjects: 0
  TEAEs Drug-Related, %: 6.3%
  TEAEs Drug-Related, e - Number of events: 6
  TEAEs Drug-Related, n - Number of subjects: 4
  TEAEs Leading to death, %: 0.0%
  TEAEs Leading to death, e - Number of events: 0
  TEAEs Leading to death, n - Number of subjects: 0
  TEAEs Leading to dosing discontinuation, %: 1.6%
  TEAEs Leading to dosing discontinuation, e - Number of events: 1
  TEAEs Leading to dosing discontinuation, n - Number of subjects: 1
  TEAEs Leading to study discontinuation, %: 1.6%
  TEAEs Leading to study discontinuation, e - Number of events: 1
  TEAEs Leading to study discontinuation, n - Number of subjects: 1
  TEAEs, %: 28.6%
  TEAEs, e - Number of events: 30
  TEAEs, n - Number of subjects: 18
[2]; [6]
  AESI, %: 1.6%
  AESI, e - Number of events: 1
  AESI, n - Number of subjects: 1
  SAEs, %: 1.6%
  SAEs, e - Number of events: 1
  SAEs, n - Number of subjects: 1
  TEAEs Drug-Related, %: 9.7%
  TEAEs Drug-Related, e - Number of events: 10
  TEAEs Drug-Related, n - Number of subjects: 6
  TEAEs Leading to death, %: 0.0%
  TEAEs Leading to death, e - Number of events: 0
  TEAEs Leading to death, n - Number of subjects: 0
  TEAEs Leading to dosing discontinuation, %: 3.2%
  TEAEs Leading to dosing discontinuation, e - Number of events: 2
  TEAEs Leading to dosing discontinuation, n - Number of subjects: 2
  TEAEs Leading to study discontinuation, %: 0.0%
  TEAEs Leading to study discontinuation, e - Number of events: 0
  TEAEs Leading to study discontinuation, n - Number of subjects: 0
  TEAEs, %: 30.6%
  TEAEs, e - Number of events: 42
  TEAEs, n - Number of subjects: 19
[2]; [7]
  AESI, %: 6.7%
  AESI, e - Number of events: 4
  AESI, n - Number of subjects: 4
  SAEs, %: 1.7%
  SAEs, e - Number of events: 1
  SAEs, n - Number of subjects: 1
  TEAEs Drug-Related, %: 10.0%
  TEAEs Drug-Related, e - Number of events: 8
  TEAEs Drug-Related, n - Number of subjects: 6
  TEAEs Leading to death, %: 1.7%
  TEAEs Leading to death, e - Number of events: 1
  TEAEs Leading to death, n - Number of subjects: 1
  TEAEs Leading to dosing discontinuation, %: 3.3%
  TEAEs Leading to dosing discontinuation, e - Number of events: 2
  TEAEs Leading to dosing discontinuation, n - Number of subjects: 2
  TEAEs Leading to study discontinuation, %: 1.7%
  TEAEs Leading to study discontinuation, e - Number of events: 1
  TEAEs Leading to study discontinuation, n - Number of subjects: 1
  TEAEs, %: 23.3%
  TEAEs, e - Number of events: 27
  TEAEs, n - Number of subjects: 14
[2]; active Baxdrostat groups
  hyperkalemia leading to trial discontinuation: No instances of hyperkalemia led to trial discontinuation
Aldosterone synthase [3]; 24-hour urine
  urinary aldosterone excretion: significantly reduced urinary aldosterone excretion
Aldosterone synthase [3]; in vivo
  suppression of aldosterone and augmentation of renin activity, male vs female patients: comparable between male and female patients
Aldosterone synthase [3]; rHTN patients
  plasma renin activity (PRA): increased PRA several-fold
  total serum cortisol: no reduction in total serum cortisol
Aldosterone synthase [4]; single oral dose
  cortisol levels with an adrenocorticotropin hormone challenge: no meaningful effect on cortisol levels
Aldosterone synthase [4]; single oral dose 1 to 360 mg, fasted, low salt and normal salt diet
  aldosterone levels: significantly reduced aldosterone levels in a dose-dependent manner
